Source: patent US20240174618A1, “SUBSTITUTED (2-HETEROARYLOXYPHENYL)SULFONATES, SALTS THEREOF AND THEIR USE AS HERBICIDAL AGENTS” (Bayer Aktiengesellschaft, priority 2021, published 2024)

How the values were obtained:
Type in all cases: in vivo
[1] = test system: Echinochloa crus-galli (ECHCG); test: A. Herbicidal pre-emergence efficacy, ECHCG; settings: scored visually after about 3 weeks vs untreated controls
Procedure, shortened: (§1)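 Applied before emergence onto covering soil at rates of 1280 g/ha or less, using 600 L/ha spray water with 0.5% additive. Scoring: visual % efficacy after ~3 weeks, greenhouse.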

[2] = test system: Alopecurus myosuroides (ALOMY); test: A. Herbicidal pre-emergence efficacy, ALOMY; settings: scored visually after about 3 weeks vs untreated controls
Procedure, shortened: as §1

[3] = test system: Abutilon theophrasti (ABUTH); test: E. Herbicidal post-emergence efficacy, ABUTH
Procedure, shortened: (§2)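 Compounds applied at 320 g/ha or less as a foliar spray (600 l/ha, 0.5% additive) to one-leaf-stage greenhouse plants grown in sandy loam. Damage is visually scored in percent relative to untreated plants after about 3 weeks.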

Viola tricolor (VIOTR) = test: E. Herbicidal post-emergence efficacy, VIOTR
Procedure, shortened: as §2

Veronica persica (VERPE) = test: E. Herbicidal post-emergence efficacy, VERPE
Procedure, shortened: as §2

[4] = test system: Abutilon theophrasti (ABUTH); test: B. Herbicidal post-emergence efficacy, ABUTH; settings: rated visually after about 3 weeks
Procedure, shortened: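 Post-emergence greenhouse test: one-leaf-stage plants, compound (WP/EC, +0.5% additive, 600 L/ha water, ≤1280 g/ha) applied to green parts; % efficacy scored visually vs untreated after ~3 wk; 100% = plants died.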

Poa annua (POAAN) = test: A. Herbicidal pre-emergence efficacy, POAAN
Procedure, shortened: as §1

[5] = test system: Amaranthus retroflexus (AMARE); test: C. Herbicidal pre-emergence efficacy, AMARE; settings: scored after about 3 weeks
Procedure, shortened: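 Pre-emergence test: formulated compounds sprayed as aqueous suspension or emulsion with 0.5% additive at 600 l/ha onto soil covering sown seeds, at rates corresponding to 320 g/ha or less. After about 3 weeks in greenhouse, efficacy scored visually as percent versus untreated controls (100% = plants dead).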

Compound | Pre-emergence efficacy against ECHCG ([1]; 80 g/ha) [%] | Pre-emergence efficacy against ECHCG ([1]; 320 g/ha) [%] | Pre-emergence efficacy against ECHCG ([1]; 1280 g/ha) [%] | Pre-emergence efficacy against ALOMY ([2]; 1280 g/ha) [%] | Post-emergence efficacy against ABUTH in % ([3]; application rate 320 g/ha) [%] | Post-emergence efficacy against VIOTR in % (Viola tricolor (VIOTR); application rate 80 g/ha) [%] | Post-emergence efficacy against VIOTR in % (Viola tricolor (VIOTR); application rate 320 g/ha) [%] | Post-emergence efficacy against VERPE in % (Veronica persica (VERPE); application rate 80 g/ha) [%] | Post-emergence efficacy against VERPE in % (Veronica persica (VERPE); application rate 320 g/ha) [%] | Post-emergence efficacy against ABUTH in % ([4]; 320 g/ha) [%] | Post-emergence efficacy against ABUTH in % ([4]; 1280 g/ha) [%] | Pre-emergence efficacy against POAAN (Poa annua (POAAN); dosage 80 g/ha) [%] | Pre-emergence efficacy against POAAN (Poa annua (POAAN); dosage 320 g/ha) [%] | Pre-emergence efficacy against POAAN (Poa annua (POAAN); dosage 1280 g/ha) [%] | Pre-emergence efficacy against AMARE ([5]; 80 g/ha) [%] | Pre-emergence efficacy against AMARE ([5]; 320 g/ha) [%] | Post-emergence efficacy against ABUTH in % ([3]; application rate 80 g/ha) [%] | Post-emergence efficacy against ABUTH in % ([4]; 80 g/ha) [%] | Pre-emergence efficacy against ALOMY ([2]; 320 g/ha) [%]
O=S(=O)(CC1CC1)Oc1ccccc1Oc1ncc(Cl)cn1 [Example I-23] | 90 | 90 | 90 | 90 | 90 | 100 | 100 | 90 | 100 | 90 | 100 | 90 | 90 | 90 | 100 | 100 |  |  | 
O=S(=O)(CCC(F)(F)F)Oc1c(Cl)cccc1Oc1ncc(Br)cn1 [Example I-32] |  |  | 100 | 90 | 80 | 100 | 100 | 100 | 100 | 100 | 100 |  | 90 | 90 | 100 | 100 | 80 | 100 | 
O=S(=O)(CCCC(F)(F)F)Oc1c(Cl)cccc1Oc1ncc(Cl)cn1 [Example I-39] |  | 90 | 100 | 100 | 100 | 100 | 100 | 100 | 100 |  | 90 |  | 100 | 100 | 100 | 100 | 80 |  | 90
O=S(=O)(CCC(F)(F)F)Oc1c(F)cccc1Oc1ncc(Br)cn1 [Example I-40] | 100 | 100 | 100 | 100 | 100 | 100 | 100 | 100 | 100 |  |  | 100 | 100 | 100 | 100 | 100 | 90 |  | 90
O=S(=O)(CCCC(F)(F)F)Oc1c(F)cccc1Oc1ncc(Br)cn1 [Example I-41] |  | 100 | 100 | 100 | 100 | 100 | 100 | 100 | 100 |  |  | 100 | 100 | 100 | 100 | 100 | 90 |  | 
O=S(=O)(CCCC(F)(F)F)Oc1c(F)cccc1Oc1ncc(F)cn1 [Example I-42] | 100 | 100 | 100 | 100 | 100 | 100 | 100 | 100 | 100 | 100 | 100 | 100 | 100 | 100 | 100 | 100 | 80 | 100 | 100
Cc1cccc(Oc2ncc(F)cn2)c1OS(=O)(=O)CCCC(F)(F)F [Example I-46] | 100 | 100 | 100 | 100 | 90 | 90 | 100 | 100 | 100 | 100 | 100 | 90 | 100 | 100 | 80 | 100 |  |  | 
